Test results as given in patent publication US5668137A, “N-heterocyclic sulfonamides having endothelin receptor activity” (Zeneca Ltd., priority 1995, dated 1997).

Test system: Human ETA or ETB receptors
Assay: Test A: inhibition of [125I]-Endothelin-1 binding to MEL cell membranes expressing recombinant receptor
Settings: inhibition of 30 pM [125I]-Endothelin-1 binding, 180 minutes at 30° C., receptor sub-type (ETA or ETB) not stated
Description: The endothelin receptor antagonist activity of compounds of formula I may be assessed in vitro by their ability to inhibit binding of [^125 ]-Endothelin-1 to its receptors. Human ETA or ETB receptors (sub-types of the endothelin receptor) were expressed in Mouse Erythroleukemic Cells (MEL cells) by using standard molecular techniques (for example, as described by Sambrook J., Fritsch E. F. & Maniatis T. (1989) Molecular Cloning: A Laboratory Manual, 2nd Edition, Cold Spring Harbor Press, USA). cDNA sequences encoding the human ETA, and ETB receptor (Hosoda K. et al (1991), FEBS Lett., 287, 23-26 and Sakamoto A. et al, (1991), Biochem. Biophys Res. Comm., 178, 656-663) are subcloned into pBluescript vector followed by insertion into the MEL cell expression vector pEV as described by Needham et al (1992), Nuc. Acids Res., 20, 997-1003. […]
[^125 I]-Endothelin-1 binding to MEL cell membranes was measured in incubation buffer containing 50 mM Tris HCl, 1 mM CaCl2, 0.05% polyoxyethylenesorbitan monolaurate, 0.1% Bovine Serum Albumin (BSA), 0.02% sodium azide pH 7.4 at 30° C. after 180 minutes incubation. […] Nonspecific binding was measured in the presence of 100 nM unlabelled Endothelin-1. […] The filter discs were punched out and counted in a gamma counter. Compounds are tested in triplicate over a range of concentrations and IC50 (or pIC50) values calculated.

pIC50 in Test A: 8.3
Compound: COc1nc(C)cnc1NS(=O)(=O)c1ccccc1-c1ccc(CC(C)C(=O)O)cc1 (stereo not shown) [Example 1, 4'-(2-carboxypropyl)-N-(3-methoxy-5-methylpyrazin-2-yl)-2-biphenylsulphonamide]
